# Data reported in patent US12448382B2, “Heterocyclic compounds for mediating tyrosine kinase 2 activity” (GUANGZHOU INNOCARE PHARMA TECH CO., LTD., priority 2019, dated 2025).
# Assays:
# [1] = molecular target: T1, human recombinant JAK2 protein (Homo sapiens, UniProt O60674); assay: JAK2 Inhibition Assay (HTRF kinase assay); format: biochemical; conditions: human recombinant JAK2, 2.5 μM ATP substrate solution
# T1 construct: purchased Carna Biosciences 08-045
# Method: The effect of the compounds of the present invention on the enzymatic activity of JAK2 was assessed by detecting the substrate phosphorylation level in a kinase reaction using the HTRF kinase assay detection kit (Cisbio, Cat. No. 62TK0PEC).
# (§1) The experimental method is generally described below:
# A reaction buffer contained the following components: an enzyme reaction buffer (1×), 5 mM MgCl2, 1 mM DTT and 0.01% Brij35 from the kit. A JAK2 kinase solution contained a human recombinant JAK2 protein (Carna Biosciences, 08-045) diluted in the reaction buffer to 0.15 ng/μL. A substrate reaction solution contained 2.5 μM ATP and 0.25 μM of a biotinylated tyrosine kinase substrate from the kit in the reaction buffer. A detection solution contained 0.1 ng/μL Eu^3+-labeled cage antibody (Cisbio, 61T66KLB) and 12.5 nM streptavidin-labeled XL665 (Cisbio, 610SAXLB) in the reaction buffer.
# (§2) The test compound was dissolved in DMSO to 10 μM, followed by a serial 4-fold dilution with DMSO to a minimum concentration of 0.061 nM. Each concentration was further diluted 40-fold with the reaction buffer.
# To a 384-well assay plate (Corning, 3674) were added 4 μL of compound solution and 2 μL of JAK2 kinase solution. The mixture was mixed and incubated at room temperature for 15 minutes, and then added with 4 μL of the substrate reaction solution. After further incubation at room temperature for 30 minutes, the reaction mixture was added with an equal volume of 10 μL detection solution and allowed to stand at room temperature for 30 minutes. An Envision plate reader (Perkin Elmer) was then used to measure the progress of the reaction at 620 nm and 665 nm. The ratio of absorbances at 665 nm and 620 nm was positively correlated with the degree of substrate phosphorylation, therefore the activity of JAK2 kinase was detected. In the experiment, the group without JAK2 kinase protein was treated as the 100% inhibition group, and the group with JAK2 kinase protein but not the test compound was treated as the 0% inhibition group. The percentage of inhibition on JAK2 kinase activity by the test compound was calculated using the following formula: Percentage of inhibition=100−100*(ratiocompound−ratio100% inhibition)/(ratio0% inhibition−ratio100% inhibition)
# The IC50 value of the test compound was calculated from 8 concentration points using the XLfit softwere (ID Business Solutions Ltd., UK) by the following formula: Y=Bottom+(Top−Bottom)/(1+10^((log IC50−X)×slope factor))
# Where Y was the percentage of inhibition, X was the logarithm of the concentration of the test compound. Bottom was the bottom plateau value of the S-shaped curve, Top was the top plateau value of the S-shaped curve, and slope factor was the slope coefficient of the curve.
# [2] = molecular target: T2, human recombinant TYK2 protein (Homo sapiens, UniProt P29597); assay: TYK2 Inhibition Assay (HTRF kinase assay); format: biochemical; conditions: human recombinant TYK2, 11.25 μM ATP substrate solution
# T2 construct: purchased Carna Biosciences 08-147
# T2 sequence (P29597 871-1187 limits assumed): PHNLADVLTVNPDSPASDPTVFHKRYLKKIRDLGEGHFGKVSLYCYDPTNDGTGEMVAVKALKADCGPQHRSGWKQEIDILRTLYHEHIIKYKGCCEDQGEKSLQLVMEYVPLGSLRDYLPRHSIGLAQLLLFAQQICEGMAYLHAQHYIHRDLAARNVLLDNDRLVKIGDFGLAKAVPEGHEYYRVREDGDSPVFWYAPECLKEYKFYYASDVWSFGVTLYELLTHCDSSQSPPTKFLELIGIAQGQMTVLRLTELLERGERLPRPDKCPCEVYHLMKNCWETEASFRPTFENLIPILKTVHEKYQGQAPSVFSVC
# Method: The effect of the compounds of the present invention on the enzymatic activity of TYK2 was assessed by detecting the substrate phosphorylation level in a kinase reaction using the HTRF kinase assay detection kit (Cisbio, Cat. No. 62TK0PEC).
# as §1
# A reaction buffer contained the following components: an enzyme reaction buffer (1×), 5 mM MgCl2 mM DTT and 0.01% Brij35 from the kit. A TYK2 kinase solution contained human recombinant TYK2 protein (Carna Biosciences, 08-147) diluted in the reaction buffer to 0.25 ng/μL. A substrate reaction solution contained 11.25 μM ATP and 0.5 μM of a biotinylated tyrosine kinase substrate from the kit in the reaction buffer. A detection solution contained 0.1 ng/μL Eu^3+-labeled cage antibody (Cisbio, 61T66KLB) and 25 nM streptavidin-1 added XL665 (Cisbio, 610SAXLB) in the reaction buffer.
# as §2
# To a 384-well assay plate (Corning, 3674) were added 4 μL of compound solution and 2 μL of TYK2 kinase solution. The mixture was mixed and incubated at room temperature for 15 minutes, and then added with 4 μL of the substrate reaction solution. After further incubation at room temperature for 40 minutes, the reaction mixture was added with an equal volume of 10 μL detection solution and allowed to stand at room temperature for 30 minutes. An Envision plate reader (Perkin Elmer) was then used to measure the progress of the reaction at 620 nm and 665 nm. The ratio of absorbances at 665 nm and 620 nm was positively correlated with the degree of substrate phosphorylation, therefore the activity of TYK2 kinase was detected. In the experiment, the group without TYK2 kinase protein was treated as the 100% inhibition group, and the group with TYK2 kinase protein but not the test compound was treated as the 0% inhibition group. The percentage of inhibition on TYK2 kinase activity by the test, compound was calculated using the following formula: Percentage of inhibition=100−100*(ratiocompound−ratio100% inhibition)/(ratio0% inhibition−ratio100% inhibition)
# The IC50 value of the test compound was calculated from 8 concentration points using the XLfit software (ID Business Solutions Ltd., UK) by the following formula: Y=Bottom+(Top−Bottom)/(1+10^((log IC50−X)slope factor))
# Where Y was the percentage of inhibition, X was the logarithm of the concentration of the test compound, Bottom was the bottom plateau value of the S-shaped curve, Top was the top plateau value of the S-shaped curve, and slope factor was the slope coefficient of the curve.
# T1 sequence (O60674 826-1132 limits assumed): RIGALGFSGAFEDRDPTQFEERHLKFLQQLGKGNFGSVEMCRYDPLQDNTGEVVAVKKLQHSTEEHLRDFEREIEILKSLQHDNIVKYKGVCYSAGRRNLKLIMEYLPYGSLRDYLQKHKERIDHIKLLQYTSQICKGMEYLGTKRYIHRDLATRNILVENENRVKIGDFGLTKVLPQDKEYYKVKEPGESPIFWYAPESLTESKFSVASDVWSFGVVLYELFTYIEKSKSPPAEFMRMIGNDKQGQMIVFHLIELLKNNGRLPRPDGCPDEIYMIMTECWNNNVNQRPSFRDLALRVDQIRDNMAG
IC50 [1] [nM],IC50 [2] [nM],Molecule
475,149,"5-chloro-4-((3aR,6aS)-3a,6a-dimethyl-5-((1-methyl-IH-pyrazol-4-yl)methyl)hexahydropyrrolo[3,4-c]pyrrol-2(1H)-yl)-N-(1-methyl-1H-pyrazol-4-yl)pyrimidin-2-amine [Compound 76]"
319,125,"Cn1cc(Nc2nccc(N3C[C@]4(C)CN(C(=O)C5CC5)C[C@]4(C)C3)n2)cn1 [Compound 1, cyc1opropyl((3aR,6aS)-3a,6a-dimethyl-5-(2((1-methyl-1H-pyrazol-4-yl)amino)pyrimidin-4-yl)hexahydropyrrolo[3,4-c]pyrrol-2(1H)-yl)methanone]"
478,62,C[C@@]12CN(C(=O)C3CC3)C[C@]1(C)CN(c1ccnc(Nc3ccc(C(=O)O)cc3)n1)C2 [Compound 2]
113,23,CCNC(=O)c1ccc(Nc2nccc(N3C[C@]4(C)CN(C(=O)C5CC5)C[C@]4(C)C3)n2)cc1 [Compound 3]
126,49,"Cn1cc(Nc2nccc(N3C[C@]4(C)CN(C(=O)C(F)(F)F)C[C@]4(C)C3)n2)cn1 [Compound 4, 1-((3aR,6aS)-3a,6a-dimethyl-5-(2((1-methyl-1H-pyrazol-4-yl)amino)pyrimidin-4-yl)hexahydropyrrolo[3,4-c]pyrrol-2(1H)-yl)-2,2,2-trifluoroethan-1-one]"
82,75,"Cn1cc(Nc2nccc(N3C[C@]4(C)CN(C(=O)C5CC5(F)F)C[C@]4(C)C3)n2)cn1 (stereo partly drawn) [Compound 5, (2,2-difluorocyclopropyl)((3aR,6aS)-3a,6a-dimethyl-5-(2-((1-methyl-1H-pyrazol-4-yl)amino)pyrimidine-4-yl)hexahydropyrrolo[3,4-c]pyrrole-2(1H)-yl)methanone]"
113,127,"CCOC(=O)N1C[C@@]2(C)CN(c3ccnc(Nc4cnn(C)c4)n3)C[C@@]2(C)C1 [Compound 6, ethyl (3aR,6aS)-3a,6a-dimethyl-5-(2-((1-methyl-1H-pyrazol-4-yl)amino)pyrimidin-4-yl)hexahydropyrrol[3,4-c]pyrrole-2(1H)-carboxylate]"
138,186,"Cn1cc(Nc2nccc(N3C[C@]4(C)CN(CCC#N)C[C@]4(C)C3)n2)cn1 [Compound 7, 3-((3aR,6aS)-3a,6a-dimethyl-5-(2-((1-methyl-1H-pyrazol-4-yl)amino)pyrimidin-4-yl)hexahydropyrrolo[3,4-c]pyrrol-2(1H)-yl)propanenitrile]"
25,66,"Cn1cc(Nc2nccc(N3C[C@]4(C)CN(C(=O)NCC#N)C[C@]4(C)C3)n2)cn1 [Compound 8, (3aR,6aS)-N-(cyanomethyl)-3a,6a-dimethyl-5-(2-((1-methyl-IH-pyrazol-4-yl)amino)pyrimidin-4-yl)hexahydropyrrolo[3,4-c]pyrrole-2(1H)-carboxamide]"
38,13,CCNC(=O)c1ccc(Nc2ncc(F)c(N3C[C@H]4CN(C(=O)C5CC5(F)F)C[C@H]4C3)n2)cc1 (stereo partly drawn) [Compound 9]
551,186,"Cn1cc(Nc2ncc(C#N)c(N3C[C@]4(C)CN(C(=O)C5CC5)C[C@]4(C)C3)n2)cn1 [Compound 15, 4-((3aR,6aS)-5-(cyclopropanecarbonyl)-3a,6a-dimethlhexahydropyrrolo[3,4-c]pyrrol-2(1H)-yl)-2-((1-methyl-1H-pyrazol-4-yl)amino)pyrimidine-5-carbonitrile]"
50,43,"Cn1cc(Nc2ncc(Cl)c(N3C[C@]4(C)CN(C(=O)C5CNC5)C[C@]4(C)C3)n2)cn1 [Compound 38, azetidin-3-yl((3aR,6aS)-5-(5-chloro-2-((1-methyl-1H-pyrazol-4-yl)amino)pyrimidin-4-yl)-3a,6a-dimethylhexahydropyrrolo[3,4-c]pyrrol-2(1H)-yl)methanone]"
71,52,"Cn1cc(Nc2ncc(Cl)c(N3C[C@]4(C)CN(CCO)C[C@]4(C)C3)n2)cn1 [Compound 49, 2-((3aR,6aS)-5-(5-chloro-2-((1-methyl-1H-pyrazol-4-yl)amino)pyrimidin-4-yl)-3a,6a-dimethylhexahydropyrrolo[3,4-c]pyrrol-2(1H)-yl)ethan-1-ol]"
325,98,"Cn1cc(Nc2ncc(Cl)c(N3C[C@]4(C)CN(Cc5ccn(C)n5)C[C@]4(C)C3)n2)cn1 [Compound 75, 5-chloro-4-((3aR,6aS)-3a,6a-dimethyl-5-((1-methyl-1H-pyrazol-3-yl)methyl)hexahydropyrrolo[3,4-c]pyrrol-2(1H)-yl)-N-(1-methyl-1H-pyrazol-4-yl)pyrimidin-2-amine]"
136,30,"Cn1cc(Nc2ncc(Cl)c(N3C[C@]4(C)CN(Cc5ncn(C)n5)C[C@]4(C)C3)n2)cn1 [Compound 77, 5-chloro-4-((3aR,6aS)-3a,6a-dimethyl-5-((1-methyl-1H-1,2,4-triazol-3-yl)methyl)hexahydropyrrolo[3,4-c]pyrrol-2(1H)-yl)-N-(1-methyl-1H-pyrazol-4-yl)pyrimidin-2-amine]"
91,158,Cc1cc(Nc2ncc(Cl)c(N3C[C@]4(C)CN(C(=O)C5CC5)C[C@]4(C)C3)n2)no1 [Compound 93]
34,224,"Cn1ccc(Nc2ncc(Cl)c(N3C[C@]4(C)CN(C(=O)C5CC5)C[C@]4(C)C3)n2)n1 [Compound 94, ((3aR,6aS)-5-(5-chloro-2-((1-methyl-1H-pyrazol-3-yl)amino)pyrimidin-4-yl)-3a,6a-dimethylhexahydropyrrolo[3,4-c]pyrrol-2(1H)-yl)(cyclopropyl)methanone]"
8.1,56,"COc1cnc(Nc2cnn(C)c2)nc1N1C[C@]2(C)CN(C(=O)CC#N)C[C@]2(C)C1 [Compound 97, 3-((3aR,6aS)-5-(5-methoxy-2-((1-methyl-1H-pyrazol-4-yl)amino)pyrimidin-4-yl)-3a,6a-dimethylhexahydropyrrolo[3,4-c]pyrrol-2(1H)-yl)-3-oxopropanenitrile]"
